# Source: patent publication US20200071361A1, “ENGINEERED ANTIMICROBIAL AMPHIPHILIC PEPTIDES AND METHODS OF USE” (priority 2017, published 2020)
# Experiments:
# Experiment in all cases: Broth microdilution MIC, clinical isolate panel
# [1] = test system: Klebsiella pneumoniae isolates (n = 101); assay type: cell-based; details: Klebsiella pneumoniae (n = 101)
# Protocol: (§1) Comparator antibiotics were supplied by Micromyx, and stock solutions were prepared on the first day of testing using solvents recommended by CLSI (1). Stock solutions of all compounds were made at 40× the final testing concentration and stored at −80° C. prior to testing. Information regarding compound source, catalog and lot number, testing concentrations and drug diluent for the comparators and test agent are detailed below in Table 3.
# (§2) The test organisms evaluated in this study consisted of clinical isolates from the Micromyx Repository and reference isolates from the American Type Culture Collection (ATCC; Manassas, Va.). The clinical isolates were obtained from USA hospitals. Upon initial receipt at Micromyx, the organisms were sub-cultured onto an appropriate agar medium. Following incubation, colonies were harvested from these plates and cell suspensions prepared and frozen at −80° C. with a cryoprotectant. Prior to testing, the isolates were streaked from frozen vials onto Trypticase Soy Agar with 5% sheep blood (Becton Dickenson [BD]; Sparks, Md.; Lot Nos. 7173618, 7166759, 7208688, 72144895, 7228505 and Remel Lenexa, Kans. Lot No. 212574). Plates were incubated at 35° C. overnight.
# (§3) Mueller Hinton II broth (MHB II; BD; Lot Nos. 6258541 and 7143896) was used for MIC testing of aerobic organisms.
# (§4) MIC values were determined using a broth microdilution procedure described by CLSI (1, 3). Automated liquid handlers (Multidrop 384, Labsystems, Helsinki, Finland; Biomek 2000 and Biomek FX, Beckman Coulter, Fullerton Calif.) were used to conduct serial dilutions and liquid transfers.
# (§5) To prepare the drug mother plates, which would provide the serial drug dilutions for the replicate daughter plates, the wells of columns 2-12 of standard 96-well microdilution plates (Costar 3795) were filled with 150 μl of the designated diluent for each row of drug. The test articles and comparator compounds (300 μl at 40× the highest concentration to be tested) were dispensed into the appropriate wells in column 1. The Biomek 2000 was then used to make 2-fold serial dilutions in the mother plates from column 1 through column 11. The wells of Column 12 contained no drug and served as the organism growth control wells for the assay.
# (§6) The daughter plates were loaded with 185 μL per well of MHB II using the Multidrop 384. The daughter plates were completed on the Biomek FX instrument which transferred 5 µL of drug solution from each well of a mother plate to the corresponding well of each daughter plate in a single step. A standardized inoculum of each test organism was prepared per CLSI methods (1). The inoculum for each organism was dispensed into sterile reservoirs divided by length (Beckman Coulter), and the Biomek 2000 was used to inoculate the plates. Daughter plates were placed on the Biomek 2000 work surface in reverse orientation so that inoculation took place from low to high drug concentration.
# (§7) Plates were stacked 3-4 high, covered with a lid on the top plate, placed in plastic bags, and incubated at 35° C. for 16 to 20 hrs. Following incubation, the microplates were removed from the incubator and viewed from the bottom using a plate viewer. […] The MIC was read and recorded as the lowest concentration of drug that inhibited visible growth of the organism.
# (§8) Clinical breakpoints to determine percent resistance within a given organism group were obtained from CLSI (3), with the exception of colistin for K. pneumoniae, Enterobacter spp., and E. coli, which are only available from EUCAST.
# [2] = test system: Acinetobacter spp. isolates (n = 104); assay type: cell-based; details: Acinetobacter spp. (n = 104)
# Protocol: as §1, §2, §3, §4, §5, §6, §7, §8
# [3] = test system: Escherichia coli isolates (n = 101); assay type: cell-based; details: Escherichia coli (n = 101)
# Protocol: as §1, §2, §3, §4, §5, §6, §7, §8
# [4] = test system: Pseudomonas aeruginosa isolates (n = 109); assay type: cell-based
# Protocol: as §1, §2, §3, §4, §5, §6, §7, §8
# [5] = test system: Enterobacter spp. isolates (n = 102); assay type: cell-based, Enterobacter aerogenes and E. cloacae; details: Enterobacter spp. (n = 102)
# Protocol: as §1, §2, §3, §4, §5
# The daughter plates were loaded with 185 μL per well of MHB II using the Multidrop 384. The daughter plates were completed on the Biomek FX instrument which transferred 5 µL of drug solution from each well of a mother plate to the corresponding well of each daughter plate in a single step. […]
# Plates were stacked 3-4 high, covered with a lid on the top plate, placed in plastic bags, and incubated at 35° C. for 16 to 20 hrs. […] The MIC was read and recorded as the lowest concentration of drug that inhibited visible growth of the organism. […]
# [6] = test system: Staphylococcus aureus isolates (n = 104); assay type: cell-based
# Protocol: as §1, §2, §3, §4, §5, §6, §7, §8
# [7] = test system: Enterococcus faecium isolates (n = 104); assay type: cell-based; details: Enterococcus faecium (n = 104)
# Protocol: as §1, §2, §3, §4, §5, §6, §7, §8
structure (smiles),measurement,setting,value
NC[C@H]1O[C@H](O[C@H]2[C@H](O)[C@@H](O[C@H]3O[C@H](CO)[C@@H](O)[C@H](N)[C@H]3O)[C@H](N)C[C@@H]2N)[C@H](N)C[C@@H]1O [Tobramycin],"% R (percent of isolates resistant, clinical breakpoints)",[1],over 60%
same,MIC50,[1],16 µg/mL
same,MIC90,[1],64 µg/mL
same,MIC,[1]; read-out: Mode (MIC),16 µg/mL
same,"% R (percent of isolates resistant, clinical breakpoints)",[2],49.0%
same,MIC50,[2],8 µg/mL
same,MIC90,[2],> 64 µg/mL
same,MIC,[2]; read-out: Mode (MIC),> 64 µg/mL
same,MIC90,[3],32 µg/mL
same,MIC90,[4]; Pseudomonas aeruginosa,4 µg/mL
same,"% R (percent of isolates resistant, clinical breakpoints)",[4]; Pseudomonas aeruginosa (n = 109),7.4%
same,"% R (percent of isolates resistant, clinical breakpoints)",[5],3.9%
CN[C@H](CC(C)C)C(=O)N[C@H]1C(=O)N[C@@H](CC(N)=O)C(=O)N[C@H]2C(=O)N[C@H]3C(=O)N[C@H](C(=O)N[C@H](C(=O)O)c4cc(O)cc(O)c4-c4cc3ccc4O)[C@H](O)c3ccc(c(Cl)c3)Oc3cc2cc(c3O[C@@H]2O[C@H](CO)[C@@H](O)[C@H](O)[C@H]2O[C@H]2C[C@](C)(N)[C@H](O)[C@H](C)O2)Oc2ccc(cc2Cl)[C@H]1O [Vancomycin],"% R (percent of isolates resistant, clinical breakpoints)","[6]; Staphylococcus aureus (n = 104), all methicillin-resistant",0%
same,MIC,"[6]; Staphylococcus aureus, read-out: Mode (MIC)",1 µg/mL
same,"% R (percent of isolates resistant, clinical breakpoints)",[7],47.1%
